# Source: patent US7776847B2, “Benzisothiazoles useful for treating or preventing HCV infection” (priority 2005, dated 2010)
# Test system: HCV replicon
# Test: HCV replicon luciferase reporter assay
# Assay type: cell-based
# Details: Hepatitis C virus, Table 5; read-out: IC50
# Description: The inhibitory activity of certain exemplary compounds of the invention was confirmed using an HCV replicon assay. The HCV replicon can include such features as the HCV IRES, the HCV 3′ untranslated region, selected HCV genes encoding HCV polypeptides, selectable markers, and a reporter gene such as luciferase, GFP, etc. In the assay, actively dividing replicon-comprising cells were seeded at a density of between about 5,000 and 7,500 cells/well onto 96 well plates (about 90 μl of cells per well) and incubated at 37° C. and 5% CO2 for 24 hours. Then, the test compound (in a volume of about 10 μL) was added at various concentrations to each well and the cells were incubated for an additional 24-48 hours. The cells were harvested, and HCV replication or translation was monitored via a reporter assay, e.g., a luciferase reporter assay. The media was aspirated from each cell and Bright-Glo ([…].) luciferase assay reagents were added to each well according to the manufacturer's instructions. In this assay, the amount of test compound that yielded a 50% reduction in luciferase activity (IC50) was determined.
row,SMILES,IC50 [µM]
1,"CCCc1ccc(C(=O)NCCCNc2nsc3ccccc23)cc1 [Compound 273, N-(3-(benzo[d]isothiazol-3-ylamino)propyl)-4-propylbenzamide]",< 5
2,"COc1cccnc1NCCCNc1nsc2ccccc12 [Compound 275, N^1-(benzo[d]isothiazol-3-yl)-N^3-(3-methoxypyridin-2-yl)propane-1,3-diamine]",< 5
3,"FC(F)(F)c1cccnc1NCCCNc1nsc2ccccc12 [Compound 276, N^1-(benzo[d]isothiazol-3-yl)-N^3-(3-(trifluoromethyl)pyridin-2-yl)propane-1,3-diamine]",< 5
4,"N#Cc1cccnc1NCCCNc1nsc2ccccc12 [Compound 277, 2-(3-(benzo[d]isothiazol-3-ylamino)propylamino)nicotinonitrile]",< 5
5,"Cc1cccnc1NCCCNc1nsc2ccccc12 [Compound 278, N^1-(benzo[d]isothiazol-3-yl)-N^3-(3-methylpyridin-2-yl)propane-1,3-diamine]",< 5
6,"CCCCc1ccc(C(=O)NCCNc2nsc3ccccc23)nc1 [Compound 279, N-(2-(benzo[d]isothiazol-3-ylamino)ethyl)-5-butylpicolinamide]",< 5
7,"CCCCc1ccc(C(=O)NC(CNc2nsc3ccccc23)C(=O)O)cc1 (centres unmarked) [Compound 280, 3-(benzo[d]isothiazol-3-ylamino)-2-(4-butylbenzamido)propanoic acid]",> 5
8,"Cc1cccc(NCCCNc2nsc3ccccc23)n1 [Compound 281, N^1-(benzo[d]isothiazol-3-yl)-N^3-(6-methylpyridin-2-yl)propane-1,3-diamine]",< 5
9,"COc1ccc(NCCCNc2nsc3ccccc23)nc1 [Compound 282, N^1-(benzo[d]isothiazol-3-yl)-N^3-(5-methoxypyridin-2-yl)propane-1,3-diamine]",< 5
10,"COc1cccc(NCCCNc2nsc3ccccc23)n1 [Compound 283, N^1-(benzo[d]isothiazol-3-yl)-N^3-(6-methoxypyridin-2-yl)propane-1,3-diamine]",< 5
11,"COC(=O)c1cnc(NCCCNc2nsc3ccccc23)cc1C(F)(F)F [Compound 284, methyl 6-(3-(benzo[d]isothiazol-3-ylamino)propylamino)-4-(trifluoromethyl)nicotinate]",< 5
12,"COc1ccc(C(=O)NCCCNc2nsc3ccccc23)cc1OC1CCCC1 [Compound 286, N-(3-(benzo[d]isothiazol-3-ylamino)propyl)-3-(cyclopentyloxy)-4-methoxybenzamide]",< 5
13,"Brc1ccc(CNCCCNc2nsc3ccccc23)cc1 [Compound 287, N^1-(benzo[d]isothiazol-3-yl)-N^3-(4-bromobenzyl)propane-1,3-diamine]",< 5
14,"CCCCc1ccc(CNCCCNc2nsc3ccccc23)cc1 [Compound 288, N^1-(benzo[d]isothiazol-3-yl)-N^3-(4-butylbenzyl)propane-1,3-diamine]",< 5
15,"O=C(NCCCNc1nsc2ccccc12)c1ccc(Br)cc1 [Compound 289, N-(3-(benzo[d]isothiazol-3-ylamino)propyl)-4-bromobenzamide]",< 5
16,"CCCNc1ccc(C(=O)NCCCNc2nsc3ccccc23)cc1 [Compound 290, N-(3-(benzo[d]isothiazol-3-ylamino)propyl)-4-(propylamino)benzamide]",< 5
17,"COc1ccc(-c2ccc(CNCCCNc3nsc4ccccc34)cc2)cc1 [Compound 291, N^1-(benzo[d]isothiazol-3-yl)-N^3-((4′-methoxybiphenyl-4-yl)methyl)propane-1,3-diamine]",< 5
18,"COc1ccc(-c2ccc(CNCCCNc3nsc4ccccc34)cc2)cc1OC [Compound 292, N^1-(benzo[d]isothiazol-3-yl)-N^3-((3′,4′-dimethoxybiphenyl-4-yl)methyl)propane-1,3-diamine]",< 5
19,"CCCCc1ccc(CN(CCCNc2nsc3ccccc23)C(=O)c2ccccn2)cc1 [Compound 293, N-(3-(benzo[d]isothiazol-3-ylamino)propyl)-N-(4-butylbenzyl)picolinamide]",< 5
20,"COc1ccc(Cl)cc1-c1ccc(CNCCCNc2nsc3ccccc23)cc1 [Compound 294, N^1-(benzo[d]isothiazol-3-yl)-N^3-((5′-chloro-2′-methoxybiphenyl-4-yl)methyl)propane-1,3-diamine]",< 5
21,"CCCCc1ccc(NCCCNc2nsc3ccccc23)cc1 [Compound 295, N^1-(benzo[d]isothiazol-3-yl)-N^3-(4-butylphenyl)propane-1,3-diamine]",< 5

row,SMILES,IC50 [µM]
1,"CCN1CCN(c2ccc(C(=O)NCCCNc3nsc4ccccc34)cc2)CC1 [Compound 296, N-(3-(benzo[d]isothiazol-3-ylamino)propyl)-4-(4-ethylpiperazin-1-yl)benzamide]",< 5
2,"O=C(NCCCNc1nsc2ccccc12)c1ccc(NCc2ccccn2)cc1 [Compound 297, N-(3-(benzo[d]isothiazol-3-ylamino)propyl)-4-(pyridin-2-ylmethylamino)benzamide]",< 5
3,"CC(C)Nc1ccc(C(=O)NCCCNc2nsc3ccccc23)cc1 [Compound 298, N-(3-(benzo[d]isothiazol-3-ylamino)propyl)-4-(isopropylamino)benzamide]",< 5
4,"Brc1cccc(CNCCCNc2nsc3ccccc23)c1 [Compound 299, N^1-(benzo[d]isothiazol-3-yl)-N^3-(3-bromobenzyl)propane-1,3-diamine]",< 5
5,"COc1ccc(-c2cccc(CNCCCNc3nsc4ccccc34)c2)cc1 [Compound 300, N^1-(benzo[d]isothiazol-3-yl)-N^3-((4′-methoxybiphenyl-3-yl)methyl)propane-1,3-diamine]",< 5
6,"COc1ccc(-c2cccc(CNCCCNc3nsc4ccccc34)c2)cc1OC [Compound 301, N^1-(benzo[d]isothiazol-3-yl)-N^3-((4′,5′-dimethoxybiphenyl-3-yl)methyl)propane-1,3-diamine]",< 5
7,"COc1ccc(Cl)cc1-c1cccc(CNCCCNc2nsc3ccccc23)c1 [Compound 302, N^1-(benzo[d]isothiazol-3-yl)-N^3-((3′-chloro-6′-methoxybiphenyl-3-yl)methyl)propane-1,3-diamine]",< 5
8,"Oc1ccc(Br)cc1CNCCCNc1nsc2ccccc12 [Compound 303, 2-((3-(benzo[d]isothiazol-3-ylamino)propylamino)methyl)-4-bromophenol]",< 5
9,"COc1ccc(CNCCCNc2nsc3ccccc23)cc1O [Compound 304, 5-((3-(benzo[d]isothiazol-3-ylamino)propylamino)methyl)-2-methoxyphenol]",< 5
10,"c1ccc(CN2CCCC(NCCCNc3nsc4ccccc34)C2)cc1 (centres unmarked) [Compound 306, N^1-(benzo[d]isothiazol-3-yl)-N^3-(1-benzylpiperidin-3-yl)propane-1,3-diamine]",< 5
11,"CC(C)(C)OC(=O)N1CCC(NCCCNc2nsc3ccccc23)CC1 [Compound 307, tert-butyl 4-(3-(benzo[d]isothiazol-3-ylamino)propylamino)piperidine-1-carboxylate]",< 5
12,"c1cncc(CNCCCNc2nsc3ccccc23)c1 [Compound 308, N^1-(benzo[d]isothiazol-3-yl)-N^3-(pyridin-3-ylmethyl)propane-1,3-diamine]",> 5
13,"c1ccc(CNCCCNc2nsc3ccccc23)nc1 [Compound 309, N^1-(benzo[d]isothiazol-3-yl)-N^3-(pyridin-2-ylmethyl)propane-1,3-diamine]",> 5
14,"CCCCOc1cc(C(=O)NCCNc2nsc3ccc(NCCC)cc23)ccc1OC [Compound 310, 3-butoxy-4-methoxy-N-(2-(5-(propylamino)benzo[d]isothiazol-3-ylamino)ethyl)benzamide]",< 5
15,"O=C1NC(CNc2nsc3ccccc23)C(=O)N1c1ccc(I)cc1 (centres unmarked) [Compound 311, 5-((benzo[d]isothiazol-3-ylamino)methyl)-3-(4-iodophenyl)imidazolidine-2,4-dione]",> 5
16,"COc1ccc(-c2ccccc2CNCCCNc2nsc3ccccc23)cc1 [Compound 312, N^1-(benzo[d]isothiazol-3-yl)-N^3-((4′-methoxybiphenyl-2-yl)methyl)propane-1,3-diamine]",< 5
17,"COc1ccc(-c2ccccc2CNCCCNc2nsc3ccccc23)cc1OC [Compound 313, N^1-(benzo[d]isothiazol-3-yl)-N^3-((3′,4′-dimethoxybiphenyl-2-yl)methyl)propane-1,3-diamine]",< 5
18,"COc1ccc(-c2ccc(CN(CCCNc3nsc4ccccc34)C(=O)N3CCOCC3)cc2)cc1 [Compound 314, N-(3-(benzo[d]isothiazol-3-ylamino)propyl)-N-((4′-methoxybiphenyl-4-yl)methyl)morpholine-4-carboxamide]",< 5
19,"COc1ccc(-c2ccc(CN(CCCNc3nsc4ccccc34)C(=O)N(C)C)cc2)cc1 [Compound 315, 1-(3-(benzo[d]isothiazol-3-ylamino)propyl)-1-((4′-methoxybiphenyl-4-yl)methyl)-3,3-dimethylurea]",< 5
20,"COc1ccc(-c2ccc(CN(CCCNc3nsc4ccccc34)S(=O)(=O)c3cn(C)c(C)n3)cc2)cc1 [Compound 316, N-(3-(benzo[d]isothiazol-3-ylamino)propyl)-N-((4′-methoxybiphenyl-4-yl)methyl)-1,2-dimethyl-1H-imidazole-4-sulfonamide]",< 5
